“Also recorded” adds a separate entry of the source. Like-named read-outs stand apart in the source and are kept apart here. Starred links: 1 amine or outer side, 2 acyl side, 3 side chain; linkers in the order of their positions; H or OH if unused. Non-standard residues stand in square brackets, D forms with d. Residues, ends and D or L forms follow the SMILES beside them. Gly(N-piperonyl) = O=C(O)CNCc1ccc2c(c1)OCO2; X1 = CC(c1ccccc1)N(CC(=O)[*:2])[*:1]; Nleu = CC(C)CNCC(=O)O; Nlys = NCCCCNCC(=O)O
How the values were obtained:
HUVEC = HUVEC tube formation assay; format: cell-based, human; details: 10 μM, 1.3 nM VEGF
Procedure: HUVEC tube formation assay. Endothelial cell medium gel (ECM gel) was thawed overnight at 4° C. refrigerator and added 50 μl to each well of pre-chilled white, clear bottom 96-well plate. Incubated for 30 min to facilitate the gel formation. […] 150 μl of these treated cell suspension (20,000 cells) was added per well and incubated at 37° C. and visualized tube formation under the light microscope after 16 hours (10× magnification).

CD105 = molecular target: T1, CD105 (Homo sapiens, UniProt P17813); experiment: ELISA-like binding assay on immobilized CD105; details: same ELISA-like assay
T1 sequence (P17813 26-658): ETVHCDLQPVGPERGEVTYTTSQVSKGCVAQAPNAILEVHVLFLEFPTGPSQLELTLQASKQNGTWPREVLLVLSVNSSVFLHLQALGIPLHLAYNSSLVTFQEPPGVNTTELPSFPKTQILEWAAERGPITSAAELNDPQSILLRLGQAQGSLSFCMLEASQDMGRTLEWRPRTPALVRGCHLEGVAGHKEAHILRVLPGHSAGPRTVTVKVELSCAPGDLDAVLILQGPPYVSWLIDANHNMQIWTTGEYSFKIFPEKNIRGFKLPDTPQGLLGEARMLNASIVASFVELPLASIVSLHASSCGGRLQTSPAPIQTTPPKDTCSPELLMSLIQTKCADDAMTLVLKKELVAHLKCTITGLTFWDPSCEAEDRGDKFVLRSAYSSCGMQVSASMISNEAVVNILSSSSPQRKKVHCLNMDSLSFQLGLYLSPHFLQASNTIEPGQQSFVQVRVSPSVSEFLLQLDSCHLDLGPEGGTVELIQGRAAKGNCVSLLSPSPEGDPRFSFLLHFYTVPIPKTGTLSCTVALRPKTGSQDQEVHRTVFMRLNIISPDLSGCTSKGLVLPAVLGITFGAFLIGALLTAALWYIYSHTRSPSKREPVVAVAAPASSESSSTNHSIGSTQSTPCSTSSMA

VEGFR2 ECD = VEGFR2 ECD (Homo sapiens, UniProt P35968); experiment: Competitive binding assay against fluoresceinated GU40C; details: increasing concentrations of unlabelled competitor
VEGFR2 ECD, sequence (P35968 20-764 limits assumed): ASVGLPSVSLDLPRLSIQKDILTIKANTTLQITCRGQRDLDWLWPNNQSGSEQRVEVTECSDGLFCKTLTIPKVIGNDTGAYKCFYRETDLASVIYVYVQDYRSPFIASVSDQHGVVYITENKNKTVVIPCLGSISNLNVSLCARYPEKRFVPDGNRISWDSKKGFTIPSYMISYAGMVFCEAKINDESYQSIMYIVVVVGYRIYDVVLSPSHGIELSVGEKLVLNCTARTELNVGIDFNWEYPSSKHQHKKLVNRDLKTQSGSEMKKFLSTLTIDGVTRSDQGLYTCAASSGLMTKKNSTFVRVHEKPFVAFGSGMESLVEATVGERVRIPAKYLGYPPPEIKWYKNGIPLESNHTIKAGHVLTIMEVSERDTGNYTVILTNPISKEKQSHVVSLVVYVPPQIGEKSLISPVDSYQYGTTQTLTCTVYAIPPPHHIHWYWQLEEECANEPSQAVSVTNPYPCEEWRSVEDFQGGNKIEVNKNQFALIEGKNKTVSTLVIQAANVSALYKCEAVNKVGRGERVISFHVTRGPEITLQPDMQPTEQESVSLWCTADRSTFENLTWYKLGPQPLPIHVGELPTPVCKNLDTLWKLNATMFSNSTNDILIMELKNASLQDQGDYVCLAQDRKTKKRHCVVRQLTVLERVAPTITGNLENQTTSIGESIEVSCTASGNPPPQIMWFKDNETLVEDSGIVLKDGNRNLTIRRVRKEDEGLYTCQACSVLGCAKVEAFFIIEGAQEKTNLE
From the text: FIGS. 17A-B. GU40C truncation study results. (FIG. 17A) Downward arrows show GU40C truncation positions (FIG. 17B) Competitive binding assay results; increasing concentrations of unlabelled GU40C and truncated derivatives were competed with a constant amount of fluoraceinated GU40C. Symbols represent; GU40C (□), 8-mer (▴), 7-mer (▾), 6-mer (⋄), 5-mer (∘), 4-mer (▪), control (x).
To identify the main chain amides important for binding, the inventors synthesized five different truncated versions of GU40C, each containing all four of the N-terminal residues (FIG. 17A). Increasing concentrations of these truncated versions were competed with a constant amount of fluoresceinated GU40C for binding to the VEGR2 ECD. […] Elimination of the first C-terminal residue weakened binding about ten-fold (FIG. 17B). Further elimination of the next three C-terminal residues further diminished binding only slightly. However, deletion of the next residue essentially abolished binding of the peptoid to the VEGFR2 ECD.

VEGFR2 [1] = molecular target: T2, VEGFR2 (Homo sapiens, UniProt P35968); experiment: ELISA-like binding assay, fluoresceinated peptoids on immobilized VEGFR2 extracellular domain; set-up: VEGFR2 extracellular domain (amino acids 1-764 fused to 6× histidine-tagged Fc of human IgG, via the peptide IEGRMD; R&D Systems); linker peptide IEGRMD (internal); Fc of human IgG (C); 6xHis (C); purchased R&D Systems; details: for Kd: ELISA-like assay
Procedure: ELISA based binding assay. White, clear bottom 96-well plates (Corning Inc.) were coated with of 1 μg/ml recombinant human VEGFR2 protein (R&D Systems) using the sensitizing buffer (0.621 g NaHCO3 & 0.275 g Na2CO3 dissolved on 100 ml of ddH2O, pH=9.5) overnight at 4° C. Washed with 3×200 μl of wash buffer 1×PBS with 0.05% Tween-20 and blocked with Startingblock blocking buffer (Pierce). Added 50 μl of serial dilutions of FITC labeled peptoids dissolved in Startingblock blocking buffer to each well & allowed to react for 1 h at room temperature. Washed with 5×200 μl of wash buffer 1×PBS with 0.05% Tween-20 and remaining fluorescence was measured at 520 nm using the plate reader.
The isolated peptoids are VEGFR2 ligands. Two of the ‘hits’ from this screen, GU40C and GU40E (see FIG. 2) were resynthesized, both as free compounds and with C-terminal Cys (for C-terminal fluorescein tagging via maleimide chemistry), cleaved from the beads and purified to apparent homogeneity by reverse phase HPLC. […] The association of these peptoids with VEGFR2 was evaluated using an ELISA-like assay. A commercially available fusion protein containing the VEGFR2 extracellular domain (amino acids 1-764 fused to 6× histidine-tagged Fc of human IgG, via the peptide IEGRMD; R&D Systems) was plated into 96-well plates and then mixed with various concentrations of […] Fluorescein (FITC)-labeled peptoid. After washing away unbound peptoid, the remaining fluorescence emission signal was measured at 520 nm. In this assay purified VEGFR2 protein was used instead of the whole PAE/KDR cells that over express VEGFR2, in order to confirm these compounds were binding only to the receptor.
Target sequence in this assay (P35968 20-764): as the sequence (P35968 20-764 limits assumed) above

VEGFR2 [2] = molecular target: T2, VEGFR2; experiment: VEGF-induced VEGFR2 autophosphorylation in PAE/KDR cells, Western blot; format: cell-based; set-up: allow the library to be screened against the full-length receptor in as natural an environment as possible; host or cells: PAE/KDR (porcine aortic endothelial cells expressing human KDR)
Procedure: Western blots. Experiments were conducted using PAE/KDR cells that were grown on 6-well plates. […] The blots were probed with Phospho-VEGF receptor 2 (Tyr1175) (19A10) rabbit monoclonal or Total VEGFR2 primary antibodies (Cell signaling) and HRP-conjugated secondary antibody (BioRad).
Functional characterization of the VEGFR2-binding peptoids. GU40C and GU40E were then tested for their ability to modulate VEGFR function. Of course, since the screen simply demanded binding of the peptoid to the receptor, it was not a given that this would be the case. […] Western blot analysis using phospho-VEGFR2-specific antibodies was then employed to monitor receptor activation.
To do so, the inventors examined the effect of the peptoid on VEGF-induced VEGFR2 autophosphorylation by Western blotting, as described earlier.
Target sequence in this assay (P35968 20-1356): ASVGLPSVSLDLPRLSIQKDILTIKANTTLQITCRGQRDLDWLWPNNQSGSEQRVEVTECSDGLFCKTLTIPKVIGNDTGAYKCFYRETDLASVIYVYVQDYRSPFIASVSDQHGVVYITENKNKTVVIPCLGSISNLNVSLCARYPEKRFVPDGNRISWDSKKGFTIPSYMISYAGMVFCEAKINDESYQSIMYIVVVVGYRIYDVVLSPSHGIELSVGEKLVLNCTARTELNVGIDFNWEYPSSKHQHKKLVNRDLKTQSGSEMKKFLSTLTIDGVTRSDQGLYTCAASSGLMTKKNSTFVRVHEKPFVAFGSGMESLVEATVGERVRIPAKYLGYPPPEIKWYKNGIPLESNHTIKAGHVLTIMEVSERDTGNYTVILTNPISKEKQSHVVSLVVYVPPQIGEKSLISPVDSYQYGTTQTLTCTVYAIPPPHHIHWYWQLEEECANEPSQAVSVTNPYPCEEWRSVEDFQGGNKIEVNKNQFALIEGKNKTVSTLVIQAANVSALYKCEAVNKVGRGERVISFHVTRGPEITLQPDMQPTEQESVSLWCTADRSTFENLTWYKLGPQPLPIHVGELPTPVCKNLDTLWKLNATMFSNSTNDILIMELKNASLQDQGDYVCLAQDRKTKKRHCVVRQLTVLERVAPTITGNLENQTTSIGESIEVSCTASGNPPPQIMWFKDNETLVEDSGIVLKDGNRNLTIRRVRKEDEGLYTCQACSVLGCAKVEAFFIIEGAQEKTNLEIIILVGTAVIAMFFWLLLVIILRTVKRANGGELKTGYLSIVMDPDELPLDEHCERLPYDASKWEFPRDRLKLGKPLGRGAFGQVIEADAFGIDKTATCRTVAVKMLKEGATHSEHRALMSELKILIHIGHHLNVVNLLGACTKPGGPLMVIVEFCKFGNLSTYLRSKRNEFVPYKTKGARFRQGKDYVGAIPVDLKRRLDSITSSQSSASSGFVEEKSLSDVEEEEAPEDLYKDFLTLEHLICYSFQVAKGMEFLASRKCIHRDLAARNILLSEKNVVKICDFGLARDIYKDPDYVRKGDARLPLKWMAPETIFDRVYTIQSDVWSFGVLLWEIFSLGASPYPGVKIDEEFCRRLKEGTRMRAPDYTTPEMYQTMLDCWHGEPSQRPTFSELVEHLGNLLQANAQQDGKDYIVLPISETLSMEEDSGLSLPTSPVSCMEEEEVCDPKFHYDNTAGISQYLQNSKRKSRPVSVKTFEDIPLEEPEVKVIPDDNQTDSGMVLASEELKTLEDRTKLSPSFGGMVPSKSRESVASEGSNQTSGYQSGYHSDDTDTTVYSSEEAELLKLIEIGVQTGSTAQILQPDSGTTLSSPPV

GST = experiment: ELISA-like binding assay on immobilized GST; details: same ELISA-like assay

Compound: CC(C)CN(CC(=O)N(CCCCN)CC(=O)N(CC(=O)N(CC(=O)N(CCCCN)CC(=O)N(CC(=O)N(CCCCN)CC(=O)N(CCCCN)CC(=O)O)CC(C)C)Cc1ccc2c(c1)OCO2)C(C)c1ccccc1)C(=O)CNCCCCN (centres unmarked) [GU40C, Nlys-Nleu-Nlys-Nmba-Npip-Nlys-Nleu-Nlys-Nlys] (H-[Nlys][Nleu][Nlys][X1][Gly(N-piperonyl)][Nlys][Nleu][Nlys][Nlys]-OH)
- effect on VEGF-induced HUVEC tube formation (HUVEC): slight effect; also recorded: small effect
- binding to CD105 (CD105): did not bind detectably
- competition with fluoresceinated GU40C for binding to VEGFR2 ECD (VEGFR2 ECD): competed efficiently
- Kd (VEGFR2 [1]; immobilized VEGFR2 extracellular domain, read-out: KD): 2850 ± 400 nM
- Kd (VEGFR2 [1]; read-out: dissociation constant (KD)): ~2000 nM
- binding to VEGFR2 ECD (in words) (VEGFR2 [1]; ELISA-like binding assay): able to display binding
- binding after pre-incubation of immobilized receptor with unlabeled VEGF (VEGFR2 [1]; fluoresceinated peptoid): almost no binding
- agonist activity on VEGFR2 phosphorylation (VEGFR2 [2]; PAE/KDR cells, Western blot): Neither peptoid at any concentration tested evinced agonist activity; also recorded: None of the peptoids exhibited agonist activity
- effect on VEGF-induced VEGFR2 phosphorylation (in words) (VEGFR2 [2]; monomeric peptoids, 500 μM, 1.3 nM VEGF): weak antagonists
- inhibition of VEGFR2 phosphorylation (VEGFR2 [2]; peptoid 500 μM, 1.3 nM VEGF, PAE/KDR cells): approximately 75%
- binding to GST (GST): did not bind detectably

Reference: US8334239B2, “High affinity VEGF-receptor antagonists” (The Board of Regents of the University of Texas System, priority 2007, dated 2012)
